How the values were obtained:
LN229 MGMT− shMLH1 cells = assay: Short-term viability assay, LN229 MGMT- shMLH1; type: cell-based, human; details: for IC50: Homo sapiens, LN-229, Table III, read-out: IC50 against LN229 cell lines, MGMT− MMR−; for MGMT− RI: Table III
Protocol: The activity of KL-50 in MGMT-LN229 cells engineered to lack expression of other key MMR proteins including MSH6, MLH1, PMS2, and MSH3 was also confirmed. Western blotting was performed in LN229 MGMT+/−cells with stable expression of shRNA targeting MSH6, MLH1, PMS2, or MSH3 to confirm depletion of the shRNA targets. In shMSH6 cells, there was reduced expression of MSH2, and in shMLH1 cells, there was loss of PMS2, due to destabilization in the setting of loss of their heterodimeric partners. GAPDH serves as loading control. […] Short-term viability assay curves for KL-50 in LN229 MGMT+/−, MMR+/shMSH6 cells. […] Short-term viability assay curves for KL-50 in LN229 MGMT+/−, MMR+/shMLH1 cells. […] Short-term viability assay curves for KL-50 in LN229 MGMT+/−, MMR+/shPMS2 cells. […] Short-term viability assay curves for KL-50 in LN229 MGMT+/−, MMR+/shMSH3 cells.
MMR Protein shRNA Knockdown. pGIPZ lentiviral shRNA vectors targeting MSH2, MSH6, MLH1, PMS2, and MSH3 were purchased from Horizon Discovery (Table IV). Lentiviral particles were produced in HEK293T cells via co-transfection with lentiviral shRNA plasmid, pCMV-VSV-G envelope plasmid (Addgene, #8454) and psPAX2 packaging plasmid (Addgene, #12260), using Lipofectamine 3000 Reagent (Invitrogen, L3000001) per manufacturer's protocol. Viral particles were harvested 48 h post-transfection and used to transduce LN229 MGMT+/−cells in the presence of 8 μg/mL polybrene. Selection of pooled cells with lentiviral expression was established with 1 μg/mL puromycin 48 h post-transduction for 3 to 4 days. Single cell cloning was performed by limiting dilution and protein knockdown was confirmed by western blotting.
Short-term Cell Viability Assay. Cells were seeded in 96-well plates at 1000 or 2000 cells/well and allowed to adhere at 23° C. for 60 min and then incubated overnight at 37° C. Cells were treated with indicated concentrations of compounds in triplicate for 4-6 days prior to fixation with 3.7% paraformaldehyde and nuclear staining with 1 μg/mL Hoechst 33342 dye. Cells were imaged on a Cytation 3 imaging reader (BioTek) and quantified using CellProfiler software. For in vitro short-term growth delay experiments, IC50 values were determined from the nonlinear regression equation, [inhibitor] vs normalized response with variable slope.

[1] = test system: FANCD2 ubiquitination in LN229 MGMT+/−, MMR+/− cells; assay: Western blot analysis of FANCD2 ubiquitination; type: cell-based, human
From the text: FIGS. 8A-8K. (FIG. 8A) Change in percent cells with 1 micronuclei from baseline (DMSO control) after treatment as in FIGS. 5A and 5C. Columns, mean; error bars, SD; n>15 technical replicates; **** p<0.0001; ns, not significant. (FIG. 8B) Short-term viability assay curves for KL-50 in PD20 cells, deficient in FANCD2 (FANCD2−/−) or complemented with FANCD2 (+FANCD2). (FIG. 8C) Short-term viability assay curves for KL-50 in PEO4 (BRCA2+) and PEO1 (BRCA2−/−) cells pre-treated with 0.01% DMSO control or 10 μM O^6BG (+O^6BG) for 1 h prior to KL-50 addition. (FIG. 8D) Short-term viability assay curves for KL-50 in DLD1 BRCA2+/− and BRCA2−/−cells pre-treated with 0.01% DMSO control or 10 μM O^6BG (+O^6BG) for 1 h prior to KL-50 addition. For FIGS. 8B-8D, points, mean; error bars, SD; n=3 technical replicates. […] (FIG. 8E) Validation of micronuclei identification using olaparib as positive control. Change in percent cells with 1 micronuclei from baseline (DMSO control) after treatment with olaparib (10 μM) for 48 h in LN229 MGMT+/−, MMR+/−cells. Columns, mean; error bars, SD; n>15 technical replicates; **** p<0.0001. […] The % FANCD2 ubiquitination (% FANCD2 Ub) is quantified as the background-corrected integrated band intensity of the upper band divided by the sum of the background-corrected integrated band intensities of the upper and lower bands. […]

[2] = test system: LN229 MGMT−/MMR− intracranial tumors; assay: Orthotopic intracranial LN229 MGMT-/MMR- model; type: in vivo, mouse; details: 25 mg/kg IP M-F x 1 week as printed
From the text: FIGS. 10A-10G. KL-50 is efficacious in an LN229 MGMT−/MMR− intracranial model and is well tolerated with limited myelosuppression at supratherapeutic doses. […] (FIG. 10B) Mean body change with SEM of mice during maximum tolerated dose experiment in non-tumor bearing mice. (FIGS. 10C-10G) Complete blood counts for mice pre-treatment and 7 days post-treatment with escalations of single dose KL-50 delivered PO. WBC lower limit of normal (LLN): 2.2 K/L; Neutrophils LLN: 0.42 K/L; Lymphocyte LLN: 1.7 K/L; RBC LLN: 3.47 M/L; Platelet LLN: 155 K/L. *, P<0.05; ****, P<0.0001.
Mouse Protocol for Intracranial Study. LN229 MGMT−/MMR− cells stably expressing firefly luciferase (lentivirus-plasmids from Cellomics Technology; PLV-10003), were injected intracranially using a stereotactic injector. Briefly, 1.5 million cells in […] PBS were injected into the brain and the mice were imaged weekly using the IVIS Spectrum In Vivo Imaging System (PerkinElmer) according to the manufacturer's protocol. Images were taken on a weekly basis and acquired 10 min post intraperitoneal injection with d-luciferin (150 mg/kg of animal mass). […] Quantification of BLI flux (photons/see) was made through the identification of a region of interest (ROI) for each tumor.

Compound	IC50 (LN229 MGMT− shMLH1 cells)	MGMT− RI (LN229 MGMT− shMLH1 cells)	FANCD2 ubiquitination [1]	intracranial tumor growth (BLI) [2]
NC(=O)c1ncn2c(=O)n(CCF)nnc12 [KL-50]	7.8 ± 0.3 µM	0.6	observed specifically in MGMT-cells	effective
Cn1nnc2c(C(N)=O)ncn2c1=O [TMZ, 4-methyl-5-oxo-2,3,4,6,8-pentazabicyclo[4.3.0]nona-2,7,9-triene-9-carboxamide, reference compound]	917 ± 85 µM	180	only in MGMT−/MMR+cells	only transiently suppressed tumor growth
